# According to ChEMBL document CHEMBL3616410, “Linked pyridinyl-thiadiazoles: Design and synthesis as potential candidate for treatment of XDR and MDR tuberculosis” (Eur J Med Chem, 2015):
# Tests used:
# [1] = tested on: Mycobacterium tuberculosis; assay: Antimycobacterial activity against Mycobacterium tuberculosis H37Rv ATCC 27294 after 5 days by spectrophotometry; format: functional; conditions: H37Rv ATCC 27294, 120 h
# [2] = tested on: Mycobacterium tuberculosis; assay: Bactericidal activity against Mycobacterium tuberculosis H37Rv ATCC 27294 after 5 days by spectrophotometry; format: functional
# [3] = Cytotoxicity against human HepG2 cells after 3 days; format: cell-based
# [4] = Cytotoxicity against hamster BHK21 cells after 3 days; format: cell-based, Mesocricetus auratus, BHK-21
# [5] = tested on: Mycobacterium tuberculosis; assay: Antimycobacterial activity against Mycobacterium tuberculosis TN1040 after 5 days by spectrophotometry; format: functional; conditions: TN1040, 120 h
# [6] = tested on: Mycobacterium tuberculosis; assay: Antimycobacterial activity against Mycobacterium tuberculosis TN1051 after 5 days by spectrophotometry; format: functional; conditions: TN1051, 120 h
# [7] = tested on: Mycobacterium tuberculosis; assay: Antimycobacterial activity against Mycobacterium tuberculosis TN2351 after 5 days by spectrophotometry; format: functional; conditions: TN2351, 120 h
# [8] = tested on: Mycobacterium tuberculosis; assay: Antimycobacterial activity against Mycobacterium tuberculosis TN994 after 5 days by spectrophotometry; format: functional; conditions: TN994, 120 h
# [9] = tested on: Mycobacterium tuberculosis; assay: Antimycobacterial activity against Mycobacterium tuberculosis TN1037 after 5 days by spectrophotometry; format: functional; conditions: TN1037, 120 h
# [10] = tested on: Mycobacterium tuberculosis; assay: Antimycobacterial activity against Mycobacterium tuberculosis TN3979 after 5 days by spectrophotometry; format: functional; conditions: TN3979, 120 h
# [11] = tested on: Mycobacterium tuberculosis; assay: Antimycobacterial activity against Mycobacterium tuberculosis TN1082 after 5 days by spectrophotometry; format: functional; conditions: TN1082, 120 h
# [12] = tested on: Mycobacterium tuberculosis; assay: Antimycobacterial activity against Mycobacterium tuberculosis TN4259 after 5 days by spectrophotometry; format: functional; conditions: TN4259, 120 h
# [13] = tested on: Mycobacterium tuberculosis; assay: Antimycobacterial activity against Mycobacterium tuberculosis TN675 after 5 days by spectrophotometry; format: functional; conditions: TN675, 120 h
# [14] = tested on: Mycobacterium tuberculosis; assay: Antimycobacterial activity against Mycobacterium tuberculosis TN913 after 5 days by spectrophotometry; format: functional; conditions: TN913, 120 h
# [15] = tested on: Mycobacterium tuberculosis; assay: Antimycobacterial activity against Mycobacterium tuberculosis BE11677 after 5 days by spectrophotometry; format: functional; conditions: BE11677, 120 h
# [16] = tested on: Mycobacterium tuberculosis; assay: Antimycobacterial activity against Mycobacterium tuberculosis TN3183 after 5 days by spectrophotometry; format: functional; conditions: TN3183, 120 h
# [17] = tested on: Mycobacterium tuberculosis; assay: Antimycobacterial activity against Mycobacterium tuberculosis TN2524 after 5 days by spectrophotometry; format: functional; conditions: TN2524, 120 h
# [18] = tested on: Mycobacterium tuberculosis; assay: Antimycobacterial activity against Mycobacterium tuberculosis W4 after 5 days by spectrophotometry; format: functional; conditions: W4, 120 h
# [19] = tested on: Mycobacterium tuberculosis; assay: Antimycobacterial activity against Mycobacterium tuberculosis AH9584 after 5 days by spectrophotometry; format: functional; conditions: AH9584, 120 h
# [20] = tested on: Mycobacterium tuberculosis; assay: Antimycobacterial activity against Mycobacterium tuberculosis E8133 after 5 days by spectrophotometry; format: functional; conditions: E8133, 120 h
# [21] = tested on: Mycobacterium tuberculosis; assay: Antimycobacterial activity against Mycobacterium tuberculosis TN1008 after 5 days by spectrophotometry; format: functional; conditions: TN1008, 120 h
SMILES,MIC50 [1],MBC90 [2],CC50 at 72 h [3],CC50 at 72 h [4],other results
O=C(CCSc1nnc(-c2ccncc2)s1)Nc1ccc(Cl)cc1Cl,0.55 µM,2.5 µM,> 50 µM,> 50 µM,–
NNC(=O)c1ccncc1 [ISONIAZID],0.03 µM,–,–,–,MIC [5]: 0.03 µg/mL; MIC [1]: 0.03 µg/mL; MIC [6]: 0.03 µg/mL; MIC [7]: 0.06 µg/mL; MIC [8]: 0.03 µg/mL; MIC [9]: 0.03 µg/mL; MIC [10]: 0.06 µg/mL; MIC [11]: 0.03 µg/mL; MIC [12]: 0.03 µg/mL; MIC [13]: 0.03 µg/mL; MIC [14]: 0.03 µg/mL; MIC [15]: 0.2 µg/mL; MIC [16]: 0.03 µg/mL; MIC [17]: 0.06 µg/mL; MIC [18]: 0.03 µg/mL; MIC [19]: 0.19 µg/mL; MIC [20]: 0.08 µg/mL; MIC [21]: 0.06 µg/mL
O=C(CSc1nnc(-c2ccncc2)s1)NCc1ccccc1,0.19 µM,1.25 µM,17.7 µM,11.3 µM,–
O=C(CCSc1nnc(-c2ccncc2)s1)NCc1ccccc1,0.67 µM,2.5 µM,14 µM,18.7 µM,–
O=C(CCSc1nnc(-c2ccncc2)s1)Nc1ccc(Cl)cc1,0.07 µM,1.25 µM,7.26 µM,8.21 µM,MIC [5]: 0.03 µg/mL; MIC [1]: 0.015 µg/mL; MIC [6]: 0.06 µg/mL; MIC [7]: 0.25 µg/mL; MIC [8]: 0.03 µg/mL; MIC [9]: 0.06 µg/mL; MIC [10]: 0.13 µg/mL; MIC [11]: 0.06 µg/mL; MIC [12]: 0.06 µg/mL; MIC [13]: 0.013 µg/mL; MIC [14]: 0.013 µg/mL; MIC [15]: 0.25 µg/mL; MIC [16]: 0.06 µg/mL; MIC [17]: 0.25 µg/mL; MIC [18]: 0.06 µg/mL; MIC [19]: 0.25 µg/mL; MIC [20]: 0.13 µg/mL; MIC [21]: 0.06 µg/mL
O=C(CCSc1nnc(-c2ccncc2)s1)Nc1c(Cl)cccc1Cl,0.59 µM,2.5 µM,12.6 µM,10.3 µM,–
CC(Sc1nnc(-c2ccncc2)s1)C(=O)NCc1ccc(Cl)cc1 (stereo unspecified),> 20 µM,–,–,–,–
S=c1[nH]nc(-c2ccncc2)s1,0.2 µM,1.25 µM,19.7 µM,14.7 µM,–
CC(CSc1nnc(-c2ccncc2)s1)C(=O)NCc1ccccc1Cl (stereo unspecified),1.89 µM,5 µM,> 50 µM,> 50 µM,–
CC(Sc1nnc(-c2ccncc2)s1)C(=O)Nc1c(Cl)cccc1Cl (stereo unspecified),1.19 µM,5 µM,> 50 µM,> 50 µM,–
CC(Sc1nnc(-c2ccncc2)s1)C(=O)Nc1ccc(Cl)cc1 (stereo unspecified),0.12 µM,1.25 µM,> 50 µM,> 50 µM,–
CC(Sc1nnc(-c2ccncc2)s1)C(=O)Nc1ccccc1 (stereo unspecified),1.48 µM,5 µM,> 50 µM,> 50 µM,–
CC(CSc1nnc(-c2ccncc2)s1)C(=O)Nc1ccc(Cl)cc1Cl (stereo unspecified),1.48 µM,5 µM,> 50 µM,> 50 µM,–
O=C(CSc1nnc(-c2ccncc2)s1)Nc1ccccc1,0.18 µM,1.25 µM,15.2 µM,16.2 µM,–
O=C(CSc1nnc(-c2ccncc2)s1)NCc1ccc(Cl)cc1,11.7 µM,–,> 50 µM,> 50 µM,–
CC(CSc1nnc(-c2ccncc2)s1)C(=O)NCc1ccccc1 (stereo unspecified),2.51 µM,5 µM,> 50 µM,> 50 µM,–
CC(CSc1nnc(-c2ccncc2)s1)C(=O)Nc1ccc(Cl)cc1 (stereo unspecified),0.22 µM,1.25 µM,> 50 µM,> 50 µM,–

SMILES,MIC50 [1],MBC90 [2],CC50 at 72 h [3],CC50 at 72 h [4],other results
CC(CSc1nnc(-c2ccncc2)s1)C(=O)Nc1c(Cl)cccc1Cl (stereo unspecified),1.55 µM,5 µM,> 50 µM,> 50 µM,–
O=C(CCSc1nnc(-c2ccncc2)s1)Nc1ccccc1,0.61 µM,2.5 µM,> 50 µM,> 50 µM,–
O=C(CSc1nnc(-c2ccncc2)s1)Nc1c(Cl)cccc1Cl,> 20 µM,–,–,–,–
CC(CSc1nnc(-c2ccncc2)s1)C(=O)Nc1ccccc1 (stereo unspecified),2.26 µM,5 µM,> 50 µM,> 50 µM,–
CC(Sc1nnc(-c2ccncc2)s1)C(=O)Nc1ccc(Cl)cc1Cl (stereo unspecified),2.45 µM,5 µM,> 50 µM,> 50 µM,–
CC(Sc1nnc(-c2ccncc2)s1)C(=O)Nc1ccccc1Cl (stereo unspecified),1.04 µM,5 µM,> 50 µM,> 50 µM,–
O=C(CCSc1nnc(-c2ccncc2)s1)NCc1ccc(Cl)cc1,0.63 µM,2.5 µM,15.6 µM,21.5 µM,–
CC(Sc1nnc(-c2ccncc2)s1)C(=O)NCc1ccccc1 (stereo unspecified),1.15 µM,5 µM,> 50 µM,> 50 µM,–
O=C(CSc1nnc(-c2ccncc2)s1)Nc1ccc(Cl)cc1Cl,> 20 µM,–,–,–,–
O=C(CCSc1nnc(-c2ccncc2)s1)NCc1ccccc1Cl,0.65 µM,2.5 µM,> 50 µM,> 50 µM,–
O=C(CSc1nnc(-c2ccncc2)s1)Nc1ccc(Cl)cc1,6.81 µM,–,> 50 µM,> 50 µM,–
CC(Sc1nnc(-c2ccncc2)s1)C(=O)NCc1ccccc1Cl (stereo unspecified),1.26 µM,5 µM,> 50 µM,> 50 µM,–
O=C(CSc1nnc(-c2ccncc2)s1)Nc1ccccc1Cl,8.52 µM,–,> 50 µM,> 50 µM,–
CC(CSc1nnc(-c2ccncc2)s1)C(=O)Nc1ccccc1Cl (stereo unspecified),2.05 µM,5 µM,> 50 µM,> 50 µM,–
O=C(CSc1nnc(-c2ccncc2)s1)NCc1ccccc1Cl,9.67 µM,–,–,–,–
CC(CSc1nnc(-c2ccncc2)s1)C(=O)NCc1ccc(Cl)cc1 (stereo unspecified),1.68 µM,–,–,–,–
O=C(CCSc1nnc(-c2ccncc2)s1)Nc1ccccc1Cl,0.62 µM,2.5 µM,> 50 µM,> 50 µM,–
